In patent publication US9334263B2, “Compositions useful for treating disorders related to kit” (BLUEPRINT MEDICINES CORPORATION, priority 2013, dated 2016):
pIC50: −log10 of the molar value. Entries after “also recorded” stand apart in the source; their conditions may differ.

How the values were obtained:
[1] = molecular target: T1, PDGFRA D842V (Homo sapiens, UniProt P16234, D842V); test: PDGFRA D842V assay at Km (Caliper electrophoretic mobility shift); format: biochemical; settings: 15 uM ATP, 25 C, 90 minutes; read-out: PDFGRA D842V
T1 construct: purchased ProQinase 0761-0000-1
T1 sequence (P16234 24-1089 D842V): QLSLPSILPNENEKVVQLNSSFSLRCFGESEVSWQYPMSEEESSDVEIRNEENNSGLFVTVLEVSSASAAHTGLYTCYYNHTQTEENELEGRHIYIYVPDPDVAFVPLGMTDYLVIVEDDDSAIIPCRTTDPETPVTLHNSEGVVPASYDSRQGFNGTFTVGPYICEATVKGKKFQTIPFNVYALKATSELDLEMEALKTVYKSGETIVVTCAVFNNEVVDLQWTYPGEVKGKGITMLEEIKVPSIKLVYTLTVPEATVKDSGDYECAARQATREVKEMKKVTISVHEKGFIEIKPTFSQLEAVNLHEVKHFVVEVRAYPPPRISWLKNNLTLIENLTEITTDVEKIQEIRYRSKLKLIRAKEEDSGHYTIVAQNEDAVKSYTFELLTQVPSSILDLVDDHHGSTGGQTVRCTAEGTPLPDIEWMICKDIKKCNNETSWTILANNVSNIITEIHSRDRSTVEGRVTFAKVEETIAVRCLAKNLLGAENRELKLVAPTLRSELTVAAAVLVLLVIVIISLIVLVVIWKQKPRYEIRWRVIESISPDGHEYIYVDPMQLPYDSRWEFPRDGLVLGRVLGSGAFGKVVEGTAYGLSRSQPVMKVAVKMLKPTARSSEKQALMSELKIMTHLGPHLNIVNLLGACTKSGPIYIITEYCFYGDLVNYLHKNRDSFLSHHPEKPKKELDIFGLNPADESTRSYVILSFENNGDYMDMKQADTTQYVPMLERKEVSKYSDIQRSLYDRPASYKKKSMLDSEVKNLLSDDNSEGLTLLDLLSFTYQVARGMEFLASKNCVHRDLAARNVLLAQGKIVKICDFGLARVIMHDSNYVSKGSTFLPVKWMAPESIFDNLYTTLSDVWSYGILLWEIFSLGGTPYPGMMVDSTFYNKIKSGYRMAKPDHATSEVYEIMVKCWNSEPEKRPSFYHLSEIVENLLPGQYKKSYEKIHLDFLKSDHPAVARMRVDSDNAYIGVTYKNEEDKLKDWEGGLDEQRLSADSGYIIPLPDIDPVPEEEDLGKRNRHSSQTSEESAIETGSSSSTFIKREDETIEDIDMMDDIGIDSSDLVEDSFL
Description: (§1) In order to assess the activity of chemical compounds against the relevant kinase of interest, the Caliper LifeSciences electrophoretic mobility shift technology platform is used. Fluorescently labeled substrate peptide is incubated in the presence of kinase and ATP so that a […] proportion of the peptide is phosphorylated. At the end of the reaction, the mix of phosphorylated (product) and non-phosphorylated (substrate) peptides are passed through the microfluidic system of the Caliper EZ Reader 2, under an applied potential difference. The presence of the phosphate group on the product peptide provides a difference in mass and charge between those of the substrate peptide, resulting in a separation of the substrate and product pools in the sample. As the pools pass a LEDS within the instrument, these pools are detected and resolved as separate peaks. The ratio between these peaks therefore reflects the activity of the chemical matter at that concentration in that well, under those conditions.
(§2) The reaction was stopped by the addition of 70 ul of Stop buffer (100 mM HEPES pH 7.5, 0.015% Brij 35, 35 mM EDTA and 0.2% of Coating Reagent 3 (Caliper Lifesciences)). The plate was then read on a Caliper EZReader 2 (protocol settings: −1.9 psi, upstream voltage −500, downstream voltage −3000, post sample sip 38 s).

[2] = molecular target: T2, wild type Kit (Homo sapiens, UniProt P10721); test: Kit wild type assay at Km (Caliper electrophoretic mobility shift); format: biochemical; settings: 400 uM ATP, 25 C, 90 minutes; read-out: WT KIT
T2 construct: purchased Carna Bioscience 08-156
T2 sequence (P10721 26-976): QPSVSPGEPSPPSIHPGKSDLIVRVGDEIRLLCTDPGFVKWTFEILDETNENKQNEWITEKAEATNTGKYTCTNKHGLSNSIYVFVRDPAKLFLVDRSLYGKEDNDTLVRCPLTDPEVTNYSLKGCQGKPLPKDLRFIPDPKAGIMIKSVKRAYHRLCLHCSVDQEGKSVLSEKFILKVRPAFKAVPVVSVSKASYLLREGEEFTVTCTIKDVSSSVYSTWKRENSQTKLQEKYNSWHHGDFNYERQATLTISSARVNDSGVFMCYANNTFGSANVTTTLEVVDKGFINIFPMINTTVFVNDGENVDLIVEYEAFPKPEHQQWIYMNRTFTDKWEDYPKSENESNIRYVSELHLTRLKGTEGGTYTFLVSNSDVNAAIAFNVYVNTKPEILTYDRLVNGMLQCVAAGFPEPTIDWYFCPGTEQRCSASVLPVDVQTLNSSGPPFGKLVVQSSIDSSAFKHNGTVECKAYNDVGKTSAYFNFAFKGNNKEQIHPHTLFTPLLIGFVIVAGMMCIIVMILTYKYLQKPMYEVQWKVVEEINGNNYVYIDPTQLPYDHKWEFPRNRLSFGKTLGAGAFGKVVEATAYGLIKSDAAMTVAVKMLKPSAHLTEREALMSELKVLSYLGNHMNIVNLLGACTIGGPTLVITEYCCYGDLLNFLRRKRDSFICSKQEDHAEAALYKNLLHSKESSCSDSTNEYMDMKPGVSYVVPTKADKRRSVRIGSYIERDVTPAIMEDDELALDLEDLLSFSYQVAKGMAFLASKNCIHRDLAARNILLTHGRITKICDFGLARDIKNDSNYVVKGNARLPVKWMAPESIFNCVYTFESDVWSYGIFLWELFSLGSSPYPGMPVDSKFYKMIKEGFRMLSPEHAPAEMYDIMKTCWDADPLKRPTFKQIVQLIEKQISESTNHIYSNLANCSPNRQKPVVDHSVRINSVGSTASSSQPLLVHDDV
Description: as §1
as §2, with “−700,” for “−500,”, “35” for “38”

[3] = molecular target: T3, Kit D816V (HMC1.2 cells, Kit V560G and D816V) (Homo sapiens, UniProt P10721, D816V/V560G); test: HMC1.2 autophosphorylation assay (AlphaLISA, phospho-Y719 c-Kit); format: cell-based; settings: Kit autophosphorylation at tyrosine 719, 90 minutes, read-out: Cellular Activity
T3 construct: endogenous in cells; host or cells: HMC1.2 cells
T3 sequence (P10721 26-976 V560G/D816V): as the sequence (P10721 26-976) above, with V535G, D791V counted along it
Summary of the method: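 Serum-starved (overnight, serum-free IMDM) HMC1.2 cells were treated for 90 min with a 10-point compound series (25 uM–95.4 pM, 0.25% DMSO final). Lysates were probed with phospho-Y719 and total c-Kit antibodies (15 nM final) plus AlphaLISA acceptor and streptavidin donor beads (2 h each, RT), with AlphaScreen read-out.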

[4] = molecular target: T4, D816V Kit (Homo sapiens, UniProt P10721, D816V); test: Kit D816V assay at Km (Caliper electrophoretic mobility shift); format: biochemical; settings: 15 uM ATP, 25 C, 90 minutes
T4 construct: purchased Carna Bioscience 08-156
T4 sequence (P10721 26-976 D816V): as the sequence (P10721 26-976) above, with D791V counted along it
Summary of the method: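 Read-out is the ratio of phosphorylated to unphosphorylated fluorescent peptide, resolved by mobility shift on a Caliper EZ Reader 2.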

[5] = tested on: P815 tumor cells; test: P815 mastocytoma xenograft model; format: in vivo, mouse; settings: female BALB/c nude mice, P815 s.c., p.o. BID x 10
Description: Compound 165 and Dasatinib were evaluated in a P815 mastocytoma xenograft model. P815 tumor cells (ATCC, Manassas, Va., cat # ATCC® TIB-64) were maintained in vitro as a suspension and monolayer culture in RPMI1640 medium supplemented with 10% fetal calf serum at 37° C. in an atmosphere of 5% CO2 in air. The tumor cells were sub-cultured twice weekly by trypsin-EDTA treatment. The cells growing in an exponential growth phase were harvested and counted for tumor inoculation.
Tumor sizes were measured every other day in two dimensions using a caliper, and the volume was expressed in mm^3 using the formula: V=0.5 a×b^2 where a and b were the long and short diameters of the tumor, respectively. […] T-C was calculated with T as the median time (in days) required for the treatment group tumors to reach a predetermined size (e.g., 1000 mm^3), and C as the median time (in days) for the control group tumors to reach the same size. […]
TGI was calculated for each group using the formula: TGI (%)=[1−(Ti−T0)/(Vi−V0)]×100; Ti is the average tumor volume of a treatment group on a given day, T0 is the average tumor volume of the treatment group on the day of treatment start, Vi is the average tumor volume of the vehicle control group on the same day with Ti, and V0 is the average tumor volume of the vehicle group on the day of treatment start. Tumor weight was measured at the endpoint. […]

Compound | pIC50 [1] | pIC50 [2] | pIC50 [3] | pIC50 [4] | tumor growth inhibition / antitumor activity [5]
O[C@@H]1CCCN(c2ccc(Nc3ncnc(N4CCN(c5ncc(Cc6ccccc6)cn5)CC4)n3)cc2)C1 [Compound 165] | 8.00 to 9.00 | 6.00 to 7.00 | 7.00 to 8.00 | 8.00 to 9.00 | effective in inhibiting tumor growth; also recorded: observable antitumor activity
CNCCCn1cc(Nc2ncnc(N3CCN(c4ncc(Cc5ccccc5)cn4)CC3)n2)cn1 [Compound 61] | > 9.00 | > 8.00 | 7.00 to 8.00 | > 9.00 | 
c1ccc(Oc2cnc(N3CCN(c4ncnc(Nc5ccc6c(c5)CNCC6)n4)CC3)nc2)cc1 [Compound 46] | 8.00 to 9.00 | > 8.00 | 7.00 to 8.00 | > 9.00 | 
c1ccc(Cc2cnc(N3CCN(c4ncnc(Nc5cnn(C[C@H]6CNCCO6)c5)n4)CC3)nc2)cc1 [Compound 123] | > 9.00 | > 8.00 | > 8.00 | > 9.00 | 
Oc1nc(N2CCN(c3ncnc(Nc4ccc5c(c4)CNCC5)n3)CC2)ncc1Cc1ccccc1 [Compound 75] | > 9.00 | > 8.00 | 7.00 to 8.00 | > 9.00 | 
c1ccc(Cc2cnc(N3CCN(c4ncnc(Nc5cnn(C[C@@H]6CNCCO6)c5)n4)CC3)nc2)cc1 [Compound 124] | > 9.00 | > 8.00 | 7.00 to 8.00 | > 9.00 | 
Cn1cc(Nc2ncnc(N3CCN(c4ncc(Cc5ccccc5)cn4)CC3)n2)cn1 [Compound 10] | 8.00 to 9.00 | 7.00 to 7.96 | 6.00 to 7.00 | > 9.00 | 
c1ccc(Cc2cnc(N3CCN(c4ncnc(Nc5cnn(CC6CCNCC6)c5)n4)CC3)nc2)cc1 [Compound 116] | > 9.00 | > 8.00 | 7.00 to 8.00 | > 9.00 | 
OC1CCC(NCc2cccc(Nc3ncnc(N4CCN(c5ncc(Cc6ccccc6)cn5)CC4)n3)c2)C1 (stereo not drawn) [Compound 214] | > 9.00 | 7.00 to 7.96 | 7.00 to 8.00 | > 9.00 | 
c1ccc(Cc2cnc(N3CCN(c4ncnc(Nc5cnn(CC6CCNC6)c5)n4)CC3)nc2)cc1 (stereo not drawn) [Compound 83] | > 9.00 | > 8.00 | 7.00 to 8.00 | > 9.00 | 
Nc1nc(N2CCN(c3ncnc(Nc4ccc5c(c4)CNCC5)n3)CC2)ncc1Cc1ccccc1 [Compound 73] | > 9.00 | > 8.00 | > 8.00 | > 9.00 | 
CN1CCN(c2cccc(Nc3ncnc(N4CCN(c5ncc(Cc6ccccc6)cn5)CC4)n3)c2)CC1 [Compound 157] | 8.00 to 9.00 | > 8.00 | 6.00 to 7.00 | > 9.00 | 
CN(C)CCCn1cc(Nc2ncnc(N3CCN(c4ncc(Cc5ccccc5)cn4)CC3)n2)cn1 [Compound 88] | > 9.00 | 7.00 to 7.96 | 7.00 to 8.00 | > 9.00 | 
c1ccc(Cc2cnc(N3CCN(c4ncnc(Nc5cnc6c(c5)CNCC6)n4)CC3)nc2)cc1 [Compound 43] | 8.00 to 9.00 | 7.00 to 7.96 | 7.00 to 8.00 | > 9.00 | 
CNC(C)c1cccc(Nc2ncnc(N3CCN(c4ncc(Cc5ccccc5)cn4)CC3)n2)c1 (stereo not drawn) [Compound 48] | > 9.00 | > 8.00 | 7.00 to 8.00 | > 9.00 | 
c1ccc(Cc2cnc(N3CCN(c4ncnc(Nc5cccc(C6CCCNC6)c5)n4)CC3)nc2)cc1 (stereo not drawn) [Compound 98] | > 9.00 | > 8.00 | 7.00 to 8.00 | > 9.00 | 
CNCCn1cc(Nc2ncnc(N3CCN(c4ncc(Cc5ccccc5)cn4)CC3)n2)cn1 [Compound 30] | > 9.00 | 7.00 to 7.96 | 7.00 to 8.00 | > 9.00 | 
CCNc1cccc(Nc2ncnc(N3CCN(c4ncc(Cc5ccccc5)cn4)CC3)n2)c1 [Compound 25] | > 9.00 | 7.00 to 7.96 | 7.00 to 8.00 | > 9.00 | 
CN1CCc2ccc(Nc3ncnc(N4CCN(c5ncc(Cc6ccccc6)cn5)CC4)n3)cc2C1 [Compound 69] | > 9.00 | > 8.00 | > 8.00 | > 9.00 | 
Nc1cccc(Nc2ncnc(N3CCN(c4ncc(Cc5ccccc5)cn4)CC3)n2)c1 [Compound 12] | > 9.00 | > 8.00 | > 8.00 | > 9.00 | 

Continued, in another order:

pIC50 [1] | pIC50 [2] | pIC50 [3] | pIC50 [4] | Compound | tumor growth inhibition / antitumor activity [5]
> 9.00 | > 8.00 | 7.00 to 8.00 | > 9.00 | c1ccc(Cc2cnc(N3CCN(c4ncnc(Nc5cnn([C@@H]6CCNC6)c5)n4)CC3)nc2)cc1 (single isomer, unassigned) [Compound 53] | 
> 9.00 | > 8.00 | 7.00 to 8.00 | > 9.00 | CN(C)[C@@H]1CCN(Cc2cccc(Nc3ncnc(N4CCN(c5ncc(Cc6ccccc6)cn5)CC4)n3)c2)C1 [Compound 261] | 
> 9.00 | > 8.00 | 7.00 to 8.00 | > 9.00 | c1ccc(Cc2cnc(N3CCN(c4ncnc(Nc5ccc(N6CCNCC6)cc5)n4)CC3)nc2)cc1 [Compound 102] | 
> 9.00 | > 8.00 | > 8.00 | > 9.00 | CN1CCC(Cn2cc(Nc3ncnc(N4CCN(c5ncc(Cc6ccccc6)cn5)CC4)n3)cn2)CC1 [Compound 174] | 
> 9.00 | > 8.00 | 5.00 to 6.00 | > 9.00 | Oc1nc(N2CCN(c3ncnc(Nc4cnn(CC5CCNCC5)c4)n3)CC2)ncc1Cc1ccccc1 [Compound 179] | 
> 9.00 | > 8.00 | 7.00 to 8.00 | > 9.00 | CN(C)C1CCN(Cc2cccc(Nc3ncnc(N4CCN(c5ncc(Cc6ccccc6)cn5)CC4)n3)c2)C1 (stereo not drawn) [Compound 259] | 
> 9.00 | 7.00 to 7.96 | 7.00 to 8.00 | > 9.00 | CC(=O)Nc1cccc(Nc2ncnc(N3CCN(c4ncc(Cc5ccccc5)cn4)CC3)n2)c1 [Compound 47] | 
> 9.00 | > 8.00 | 7.00 to 8.00 | > 9.00 | c1ccc(Cc2cnc(N3CCN(c4ncnc(Nc5cnn(CC6CCCNC6)c5)n4)CC3)nc2)cc1 (stereo not drawn) [Compound 117] | 
> 9.00 | 7.00 to 7.96 | 7.00 to 8.00 | > 9.00 | OCc1cccc(Nc2ncnc(N3CCN(c4ncc(Cc5ccccc5)cn4)CC3)n2)c1 [Compound 15] | 
